This passage reports TGI and GI50 results from PubChem BioAssay (NCI).

SMILES strings stand for the structures.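 Method: 48-hour compound exposure of cells in 96-well plates, five concentrations, linear interpolation of endpoints. GI50 is the concentration that inhibits growth by half. TGI: total growth inhibition.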 A value given as a limit tells only on which side of the number the result lay.

Test systems include OVCAR-5 ovarian; NCI-H226 lung; HCC-2998 colon; MALME-3M melanoma; NCI-H522 lung; HOP-62 NSCLC; OVCAR-4 ovarian; RPMI-8226 leukemia; EKVX NSCLC; HOP-92 NSCLC.
Test in all cases: DTP human tumour cell line panel, 48 h

For the compound `Nc1ccn(C2OC(COP(=O)(O)O)C(O)C2O)c(=O)n1` (stereo not given), the TGI in the test with OVCAR-5 ovarian, in the test on NCI-H226 lung, with HCC-2998 colon, with MALME-3M melanoma, in the test with NCI-H522 lung and in the test on HOP-62 NSCLC was over 100 µM throughout. Also, the TGI in the test on OVCAR-4 ovarian, in the test with RPMI-8226 leukemia, with EKVX NSCLC and in the test with HOP-92 NSCLC was over 100 µM throughout.

`CCOC(=O)CCc1c(C)c2ccc(O)cc2oc1=O`: the TGI with OVCAR-5 ovarian, in the test with NCI-H226 lung, with HCC-2998 colon, in the test with MALME-3M melanoma, with NCI-H522 lung and in the test on HOP-62 NSCLC was over 100 µM in each case. The total growth inhibition concentration (TGI) with OVCAR-4 ovarian, in the test on RPMI-8226 leukemia, in the test with EKVX NSCLC and in the test with HOP-92 NSCLC was over 100 µM in each case.

Regarding `CC(=O)[CH-]C(C)=O.CC(=O)[CH-]C(C)=O.CC(=O)[CH-]C(C)=O.[Cl-].[Hf+4]`, the GI50 with OVCAR-5 ovarian, in the test on NCI-H226 lung, with HCC-2998 colon, in the test on MALME-3M melanoma, with NCI-H522 lung and in the test on HOP-62 NSCLC was over 100 µM throughout. The GI50 in the test on OVCAR-4 ovarian, in the test with RPMI-8226 leukemia, with EKVX NSCLC and in the test on HOP-92 NSCLC was over 100 µM each time. Also, the TGI in the test on OVCAR-5 ovarian, in the test with NCI-H226 lung, in the test on HCC-2998 colon, in the test with MALME-3M melanoma, in the test with NCI-H522 lung and with HOP-62 NSCLC was over 100 µM throughout. For the same compound, the TGI in the test on OVCAR-4 ovarian, in the test with RPMI-8226 leukemia, with EKVX NSCLC and with HOP-92 NSCLC was over 100 µM in each case.

As for `CCOC(=O)c1ccc2[nH]c(Cc3[nH]c4ccc(C(=O)OCC)cc4c3C)c(C)c2c1`, the GI50 in the test with OVCAR-5 ovarian is 8.94 µM; in the test with NCI-H226 lung, 4.7 µM; in the test with HCC-2998 colon it was 4.35 µM; in the test on MALME-3M melanoma, 3.73 µM; in the test on NCI-H522 lung it was 3.27 µM; in the test on HOP-62 NSCLC, 2.58 µM. In addition, the GI50 is 7.87 µM in the test with OVCAR-4 ovarian, 2.66 µM in the test on RPMI-8226 leukemia, 5.09 µM in the test with EKVX NSCLC and 1.95 µM with HOP-92 NSCLC. Moreover, the TGI was determined as 53.8 µM with OVCAR-5 ovarian; 23.2 µM in the test on NCI-H226 lung; 59.3 µM in the test on HCC-2998 colon; 17.7 µM in the test on MALME-3M melanoma; 19.2 µM with NCI-H522 lung; 14.7 µM with HOP-62 NSCLC. The TGI was 47.7 µM with OVCAR-4 ovarian, 35.6 µM in the test on RPMI-8226 leukemia, 26.4 µM in the test with EKVX NSCLC and 8.99 µM with HOP-92 NSCLC.

As to `OCC1OC(O)C(N=Cc2ccc3c(c2)OCO3)C(O)C1O` (stereo not given), the TGI in the test on OVCAR-5 ovarian, with NCI-H226 lung, with HCC-2998 colon, in the test on MALME-3M melanoma, with NCI-H522 lung and in the test on HOP-62 NSCLC was over 100 µM throughout. Besides, the concentration for total growth inhibition (TGI) in the test on OVCAR-4 ovarian, with RPMI-8226 leukemia, with EKVX NSCLC and with HOP-92 NSCLC was over 100 µM in each case.

Regarding `Cc1ccc(-c2nc3nc(-c4ccc(Cl)cc4)nc(N4CCCNCC4)c3o2)cc1`, the GI50 was 1.53 µM in the test on OVCAR-5 ovarian; 1.78 µM in the test on NCI-H226 lung; 1.89 µM with HCC-2998 colon; 1.7 µM with MALME-3M melanoma; 1.75 µM in the test on NCI-H522 lung; 1.76 µM in the test with HOP-62 NSCLC. Besides, the GI50 is 1.84 µM in the test with OVCAR-4 ovarian, 2.11 µM in the test on RPMI-8226 leukemia, 1.75 µM with EKVX NSCLC and 1.36 µM in the test with HOP-92 NSCLC. In addition, the TGI stood at 2.87 µM in the test with OVCAR-5 ovarian; 3.87 µM in the test on NCI-H226 lung; 3.54 µM with HCC-2998 colon; 3.17 µM in the test with MALME-3M melanoma; 3.85 µM with NCI-H522 lung; 3.64 µM in the test on HOP-62 NSCLC. Also, the TGI with OVCAR-4 ovarian was determined as 3.39 µM; with RPMI-8226 leukemia it was 4.74 µM; with EKVX NSCLC it was 3.27 µM; in the test on HOP-92 NSCLC, 2.91 µM.

For `CN(C)c1ccc2[nH]c(O)c(C=Nc3ccc(S(N)(=O)=O)cc3)c2c1`, the GI50 in the test on OVCAR-5 ovarian, with NCI-H226 lung, in the test with HCC-2998 colon, in the test with MALME-3M melanoma, in the test on NCI-H522 lung and in the test with HOP-62 NSCLC was over 25 µM each time. Further, the GI50 in the test on OVCAR-4 ovarian, with RPMI-8226 leukemia, in the test with EKVX NSCLC and in the test with HOP-92 NSCLC was over 25 µM each time. Also, the TGI in the test with OVCAR-5 ovarian, in the test with NCI-H226 lung, in the test with HCC-2998 colon, in the test on MALME-3M melanoma, in the test with NCI-H522 lung and in the test with HOP-62 NSCLC was over 25 µM throughout. In addition, the TGI with OVCAR-4 ovarian, in the test with RPMI-8226 leukemia, in the test with EKVX NSCLC and in the test with HOP-92 NSCLC was over 25 µM throughout.

As to `Cc1cc(S(=O)(=O)/N=C(\N)n2nc(C)c(C)c2C)c(SCc2ccccc2)cc1Cl`, the GI50 in the test with OVCAR-5 ovarian, in the test on NCI-H226 lung, in the test with HCC-2998 colon, with MALME-3M melanoma, in the test with NCI-H522 lung and with HOP-62 NSCLC was over 100 µM each time. Besides, the GI50 was 19.7 µM in the test on OVCAR-4 ovarian, 2.9 µM in the test on RPMI-8226 leukemia, 5.38 µM in the test on EKVX NSCLC and 3.17 µM in the test on HOP-92 NSCLC. The TGI in the test on OVCAR-5 ovarian, in the test on NCI-H226 lung, in the test with HCC-2998 colon, in the test on MALME-3M melanoma, in the test on NCI-H522 lung and in the test on HOP-62 NSCLC was over 100 µM in each case. Moreover, the total growth inhibition concentration (TGI) in the test with OVCAR-4 ovarian, with RPMI-8226 leukemia, in the test with EKVX NSCLC and in the test on HOP-92 NSCLC was over 100 µM in each case.
